Peptide text beside a SMILES is read from it. * marks the point of attachment. βNA = c1ccc2cc(N*)ccc2c1
How the values were obtained:
Type in all cases: cell-based
Settings in all cases: comparator at 25 μg/mL in MHB
K. pneumoniae BAA-1705 [1] = assay: Ciprofloxacin MIC with selected compound in MHB
Experimental: (§1) MIC for the antibiotic alone (i.e., in the absence of the disclosed compounds) is provided in the first row labeled “None”. […] […] At this concentration (50 μg/mL), the compounds of the disclosure lacked intrinsic antibacterial activity but a significant improvement in efficacy was still observed. Thus, the compounds of the disclosure may be used to potentiate the activity of antibiotics that have lost their efficacy due to efflux.

E. cloacae BAA-2341 [2] = assay: Doxycycline MIC with selected compound in MHB
Experimental: as §1

K. pneumoniae BAA-2342 [3] = assay: Ciprofloxacin MIC with selected compound in MHB
E. cloacae BAA-2341 [4] = assay: Ciprofloxacin MIC with selected compound in MHB
A. baumannii MB306 = assay: Chloramphenicol MIC with selected compound in MHB
Source text: (§2) MIC for the antibiotic alone (i.e., in the absence of the disclosed compounds) is provided in the first row labeled “None”. […] […] […] Thus, the compounds of the disclosure may be used to potentiate the activity of antibiotics that have lost their efficacy due to efflux.

E. cloacae BAA-2341 [5] = assay: Chloramphenicol MIC with selected compound in MHB
Source text: as §2

K. pneumoniae BAA-2342 [6] = assay: Chloramphenicol MIC with selected compound in MHB
Source text: as §2

A. baumannii MB309 = assay: Chloramphenicol MIC with selected compound in MHB
Source text: as §2

E. coli BAA-2340 [7] = assay: Chloramphenicol MIC with selected compound in MHB
Experimental: as §1

[8] = test system: P. aeruginosa Focus MB0477; assay: Chloramphenicol MIC with selected compound in MHB
Experimental: as §1

E. coli BAA-2340 [9] = assay: Doxycycline MIC with selected compound in MHB
Source text: as §2

K. pneumoniae BAA-1705 [10] = assay: Doxycycline MIC with selected compound in MHB
Source text: as §2

K. pneumoniae BAA-2342 [11] = assay: Doxycycline MIC with selected compound in MHB
Source text: as §2

E. Cloacae MB315 = assay: PMB MIC with selected compound in MHB
Experimental: as §1

E. coli BAA-2340 [12] = assay: Ciprofloxacin MIC with selected compound in MHB
[13] = test system: S. enterica sp. Enterica S10801; assay: Doxycycline MIC with selected compound in MHB
Experimental: The wild-type S. enterica serovar Typhimurium strain, SL1344, was initially isolated from the blood of an infected calf. For screening and validation in macrophages, SL1344 sifB::gfp was grown in Luria-Bertani Broth (LB) with 30 μg/ml streptomycin and 30 μg/ml kanamycin to saturation overnight, diluted to an OD of 0.001 and frozen in 100 μL aliquots in 20% glycerol at −80° C. Prior to infection, aliquots were grown in 5 mL cultures of LB with 30 μg/ml streptomycin and 30 μg/ml kanamycin for 18 hours at 37° C. with aeration. Bacterial strains were routinely grown in LB with antibiotics: 30 μg/ml streptomycin, 30 μg/ml kanamycin, 50 μg/ml ampicillin, 10 μg/ml tetracycline, and/or 1.15 μg/ml meropenem. The acrAB::kan and macAB::kan strains were constructed according to known methods. S. enterica subsp. enterica, serovar Typhimurium strain S10801, NR-22067 is a multidrug resistant isolate from a calf with sepsis. This strain and others as indicated were obtained through BEI resources, NIAID, NIH.
MIC for the antibiotic alone (i.e., in the absence of the disclosed compounds) is provided in the first row labeled “None”. […] At this concentration (50 μg/mL), the compounds of the disclosure lacked intrinsic antibacterial activity but a significant improvement in efficacy was still observed. […]

N=C(N)NCCC[C@H](NC(=O)[C@@H](N)Cc1ccccc1)C(=O)Nc1ccc2ccccc2c1 [PAβN] (H-Phe-Arg-βNA)
Ciprofloxacin MIC (K. pneumoniae BAA-1705 [1]): 64 µg/mL | Doxycycline MIC (E. cloacae BAA-2341 [2]): ≤1 µg/mL | Ciprofloxacin MIC (K. pneumoniae BAA-2342 [3]): 16 µg/mL | Ciprofloxacin MIC (E. cloacae BAA-2341 [4]): 16 µg/mL | Chloramphenicol MIC (A. baumannii MB306): 32 µg/mL | Chloramphenicol MIC (E. cloacae BAA-2341 [5]): 2 µg/mL | Chloramphenicol MIC (K. pneumoniae BAA-2342 [6]): 8 µg/mL | Chloramphenicol MIC (A. baumannii MB309): 64 µg/mL | Chloramphenicol MIC (E. coli BAA-2340 [7]): 8 µg/mL | Chloramphenicol MIC [8]: 1 µg/mL | Doxycycline MIC (E. coli BAA-2340 [9]): ≤1 µg/mL | Doxycycline MIC (K. pneumoniae BAA-1705 [10]): ≤1 µg/mL | Doxycycline MIC (K. pneumoniae BAA-2342 [11]): ≤1 µg/mL | PMB MIC (E. Cloacae MB315): 32 µg/mL | Ciprofloxacin MIC (E. coli BAA-2340 [12]): 16 µg/mL | Doxycycline MIC [13]: 8 µg/mL

From patent US20240350454A1, “BACTERIAL EFFLUX PUMP INHIBITORS AND METHODS OF USE” (THE REGENTS OF THE UNIVERSITY OF COLORADO, priority 2021, published 2024)
